This passage reports Kd results from ChEMBL document CHEMBL3991601, “The target landscape of clinical kinase drugs” (Science, 2017).

Activity calls are given as the source filed them. For most assays here, no stated cut-off is given here; in the data, actives have a measured Kd and inactives only a lower limit. Bounds are passed on as bounds.

In test [1] the target is MAP kinase-activated protein kinase 2 (Homo sapiens, UniProt P49137).
For test [2], the target named is Tyrosine-protein kinase FRK (Homo sapiens, UniProt P42685).
The target in test [3] is T1, Bifunctional phosphoribosylaminoimidazole carboxylase/phosphoribosylaminoimidazole succinocarboxamide synthetase (Homo sapiens, UniProt P22234).
T1 sequence (P22234 whole entry): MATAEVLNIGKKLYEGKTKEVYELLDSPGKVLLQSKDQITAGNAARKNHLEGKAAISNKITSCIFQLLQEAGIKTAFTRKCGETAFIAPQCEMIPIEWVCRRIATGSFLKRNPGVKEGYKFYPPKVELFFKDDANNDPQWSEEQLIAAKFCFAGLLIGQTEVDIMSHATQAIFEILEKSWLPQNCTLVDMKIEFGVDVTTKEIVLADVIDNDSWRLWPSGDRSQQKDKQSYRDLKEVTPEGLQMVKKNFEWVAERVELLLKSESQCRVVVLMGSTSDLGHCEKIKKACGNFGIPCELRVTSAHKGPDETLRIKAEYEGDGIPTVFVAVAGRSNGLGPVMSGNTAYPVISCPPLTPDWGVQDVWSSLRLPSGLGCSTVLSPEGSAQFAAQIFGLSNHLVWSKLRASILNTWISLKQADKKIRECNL

The next test addresses TGF-beta receptor type-2 (Homo sapiens, UniProt P37173).
The target in test [4] is T2, Calcium/calmodulin-dependent protein kinase type IV (Homo sapiens, UniProt Q16566).
T2 sequence (Q16566 whole entry): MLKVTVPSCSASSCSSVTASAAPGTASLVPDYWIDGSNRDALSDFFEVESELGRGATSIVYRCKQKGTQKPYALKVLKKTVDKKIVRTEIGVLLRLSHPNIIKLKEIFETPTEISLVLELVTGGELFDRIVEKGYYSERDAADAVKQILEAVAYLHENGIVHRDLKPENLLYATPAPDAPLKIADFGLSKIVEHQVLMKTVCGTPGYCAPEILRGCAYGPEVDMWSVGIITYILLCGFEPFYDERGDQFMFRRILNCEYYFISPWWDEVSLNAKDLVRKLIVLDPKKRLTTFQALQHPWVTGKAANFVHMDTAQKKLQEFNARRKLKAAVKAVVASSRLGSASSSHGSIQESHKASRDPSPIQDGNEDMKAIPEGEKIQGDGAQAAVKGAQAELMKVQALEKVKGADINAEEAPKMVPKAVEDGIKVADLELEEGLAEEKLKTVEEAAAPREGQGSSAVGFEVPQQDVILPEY

The target in test [5] is T3, Serine/threonine-protein kinase TAO2 (Homo sapiens, UniProt Q9UL54).
T3 sequence (Q9UL54 whole entry): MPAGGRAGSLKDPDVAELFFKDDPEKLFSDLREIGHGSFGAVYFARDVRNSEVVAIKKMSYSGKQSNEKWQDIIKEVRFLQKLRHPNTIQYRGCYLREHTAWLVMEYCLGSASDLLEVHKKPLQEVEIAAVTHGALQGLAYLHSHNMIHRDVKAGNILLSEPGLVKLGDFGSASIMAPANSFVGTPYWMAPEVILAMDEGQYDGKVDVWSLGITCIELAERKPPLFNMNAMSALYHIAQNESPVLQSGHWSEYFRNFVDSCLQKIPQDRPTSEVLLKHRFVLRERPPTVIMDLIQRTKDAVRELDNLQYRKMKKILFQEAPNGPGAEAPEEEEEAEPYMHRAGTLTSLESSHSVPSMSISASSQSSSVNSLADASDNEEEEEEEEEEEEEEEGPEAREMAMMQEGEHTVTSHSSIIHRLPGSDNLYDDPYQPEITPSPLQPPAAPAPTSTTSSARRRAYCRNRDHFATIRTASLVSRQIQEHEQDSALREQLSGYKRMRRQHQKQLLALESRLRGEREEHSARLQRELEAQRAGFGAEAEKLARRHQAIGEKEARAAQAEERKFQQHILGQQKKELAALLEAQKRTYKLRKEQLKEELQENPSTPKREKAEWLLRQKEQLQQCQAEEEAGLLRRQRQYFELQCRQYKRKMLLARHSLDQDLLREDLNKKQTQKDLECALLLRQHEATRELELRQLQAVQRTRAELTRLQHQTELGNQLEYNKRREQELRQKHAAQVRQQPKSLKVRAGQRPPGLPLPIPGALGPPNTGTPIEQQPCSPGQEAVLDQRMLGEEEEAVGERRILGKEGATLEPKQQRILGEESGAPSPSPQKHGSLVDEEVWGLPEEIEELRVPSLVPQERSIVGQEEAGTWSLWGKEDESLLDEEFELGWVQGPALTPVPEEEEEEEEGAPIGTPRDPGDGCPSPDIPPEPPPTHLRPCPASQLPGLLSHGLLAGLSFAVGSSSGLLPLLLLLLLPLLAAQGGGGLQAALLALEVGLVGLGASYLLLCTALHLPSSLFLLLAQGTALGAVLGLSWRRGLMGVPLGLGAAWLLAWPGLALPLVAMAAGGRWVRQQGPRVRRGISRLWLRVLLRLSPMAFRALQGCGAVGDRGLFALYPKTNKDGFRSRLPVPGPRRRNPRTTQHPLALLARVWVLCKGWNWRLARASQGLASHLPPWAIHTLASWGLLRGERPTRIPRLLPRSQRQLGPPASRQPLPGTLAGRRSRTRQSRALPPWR

The target of test [6] is T4, Signal recognition particle receptor subunit alpha (Homo sapiens, UniProt P08240).
T4 sequence (P08240 whole entry): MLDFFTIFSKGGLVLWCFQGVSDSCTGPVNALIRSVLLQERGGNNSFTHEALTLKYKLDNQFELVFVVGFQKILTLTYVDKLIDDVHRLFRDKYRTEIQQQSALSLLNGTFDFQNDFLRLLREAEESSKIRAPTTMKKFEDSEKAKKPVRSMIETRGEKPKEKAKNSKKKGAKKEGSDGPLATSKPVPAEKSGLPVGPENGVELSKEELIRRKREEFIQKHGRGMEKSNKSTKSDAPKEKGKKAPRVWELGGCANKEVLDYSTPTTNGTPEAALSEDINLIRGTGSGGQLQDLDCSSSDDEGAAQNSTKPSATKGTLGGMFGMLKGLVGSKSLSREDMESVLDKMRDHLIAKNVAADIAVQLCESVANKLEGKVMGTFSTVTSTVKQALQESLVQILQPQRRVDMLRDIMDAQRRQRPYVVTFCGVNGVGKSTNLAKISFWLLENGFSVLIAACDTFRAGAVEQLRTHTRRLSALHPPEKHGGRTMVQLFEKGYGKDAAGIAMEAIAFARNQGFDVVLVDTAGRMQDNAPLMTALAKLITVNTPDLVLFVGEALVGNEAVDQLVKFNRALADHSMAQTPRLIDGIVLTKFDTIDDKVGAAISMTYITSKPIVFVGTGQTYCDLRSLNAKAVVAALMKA

Sequence of Tyrosine-protein kinase FRK (P42685 whole entry): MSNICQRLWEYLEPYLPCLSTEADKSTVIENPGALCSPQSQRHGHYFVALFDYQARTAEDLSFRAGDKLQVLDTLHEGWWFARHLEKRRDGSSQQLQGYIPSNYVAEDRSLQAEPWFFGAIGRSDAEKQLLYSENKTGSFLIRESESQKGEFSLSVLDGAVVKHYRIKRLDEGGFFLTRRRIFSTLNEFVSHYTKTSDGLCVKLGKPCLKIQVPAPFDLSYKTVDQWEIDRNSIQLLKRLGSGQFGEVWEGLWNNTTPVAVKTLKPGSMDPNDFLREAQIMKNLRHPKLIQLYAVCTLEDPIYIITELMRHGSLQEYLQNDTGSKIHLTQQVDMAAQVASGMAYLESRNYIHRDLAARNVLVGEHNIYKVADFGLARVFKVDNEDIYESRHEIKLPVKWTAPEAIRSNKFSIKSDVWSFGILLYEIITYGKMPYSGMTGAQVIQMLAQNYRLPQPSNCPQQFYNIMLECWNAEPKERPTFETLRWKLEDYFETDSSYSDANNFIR
Sequence of MAP kinase-activated protein kinase 2 (P49137 whole entry): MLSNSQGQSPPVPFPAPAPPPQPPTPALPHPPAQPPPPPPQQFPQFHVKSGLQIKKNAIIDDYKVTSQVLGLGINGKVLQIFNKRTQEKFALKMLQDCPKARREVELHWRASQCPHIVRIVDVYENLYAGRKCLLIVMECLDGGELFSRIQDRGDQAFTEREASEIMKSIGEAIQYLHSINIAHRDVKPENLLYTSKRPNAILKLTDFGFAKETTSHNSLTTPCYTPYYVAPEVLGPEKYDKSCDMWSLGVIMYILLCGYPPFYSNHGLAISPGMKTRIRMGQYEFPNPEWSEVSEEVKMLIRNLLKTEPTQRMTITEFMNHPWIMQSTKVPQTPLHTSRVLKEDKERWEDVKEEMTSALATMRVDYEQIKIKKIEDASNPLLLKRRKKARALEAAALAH
Sequence of TGF-beta receptor type-2 (P37173 whole entry): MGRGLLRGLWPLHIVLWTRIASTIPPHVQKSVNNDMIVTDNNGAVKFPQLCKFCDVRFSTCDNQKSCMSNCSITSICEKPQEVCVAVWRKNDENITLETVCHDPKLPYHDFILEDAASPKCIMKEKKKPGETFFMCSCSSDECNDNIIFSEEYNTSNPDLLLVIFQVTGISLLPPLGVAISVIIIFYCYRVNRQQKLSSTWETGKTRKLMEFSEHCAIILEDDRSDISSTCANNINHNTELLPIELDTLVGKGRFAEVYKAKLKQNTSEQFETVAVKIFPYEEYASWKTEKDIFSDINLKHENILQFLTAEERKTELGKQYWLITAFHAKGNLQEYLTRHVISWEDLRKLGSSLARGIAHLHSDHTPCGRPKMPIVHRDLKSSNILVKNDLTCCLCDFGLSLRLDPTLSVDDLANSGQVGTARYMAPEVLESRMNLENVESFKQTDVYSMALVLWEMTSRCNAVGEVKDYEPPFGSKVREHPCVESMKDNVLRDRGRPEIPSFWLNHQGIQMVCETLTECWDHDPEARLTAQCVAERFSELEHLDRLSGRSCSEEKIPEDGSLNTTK

`CCOc1ccn(-c2ccc(F)cc2)c(=O)c1C(=O)Nc1ccc(Oc2ccnc(N)c2Cl)c(F)c1` [BMS-777607]: the Kd was > 30 µM (inactive) in test [1]; 0.33 µM (active) in test [2]; > 30 µM (inactive) in test [3]; > 30 µM (inactive) on TGF-beta receptor type-2; > 30 µM (inactive) in test [4]; > 30 µM (inactive) in test [5]. Further, in test [6], the Kd is > 30 µM (inactive).
In the case of `FC(F)(F)c1ccc(CNc2ccc(Cc3c[nH]c4ncc(Cl)cc34)cn2)cn1` [PEXIDARTINIB], the Kd (in test [1]; in test [2]; in test [3]; at TGF-beta receptor type-2; in test [4]; in test [5]) was > 30 µM (inactive) in each case. In test [6], the Kd is > 30 µM (inactive).
For the molecule `CNC(=O)c1cc(COc2nnc(Nc3ccc(Cl)cc3)c3ccoc23)ccn1` [TELATINIB], the Kd (in test [1]; in test [2]; in test [3]; at TGF-beta receptor type-2; in test [4]; in test [5]) was > 30 µM (inactive) each time. In addition, the Kd in test [6] was > 30 µM (inactive).
In the case of `COc1cc2ncnc3c2cc1OCCCCCN(C)Cc1ccc(Br)cc1N3` [JNJ-26483327], the Kd (in test [1]; in test [2]; in test [3]; at TGF-beta receptor type-2; in test [4]; in test [5]) was > 30 µM (inactive) in each case. Moreover, the Kd in test [6] is > 30 µM (inactive).
As to `CNC(=O)c1cccc(-c2ccc3c(N4CCOC[C@@H]4C)nc(N4CCOC[C@@H]4C)nc3n2)c1` [VISTUSERTIB], the Kd (in test [1]; in test [2]; in test [3]; at TGF-beta receptor type-2; in test [4]; in test [5]) was > 30 µM (inactive) in each case. Also, in test [6], the Kd is > 30 µM (inactive).
For the molecule `NC(=O)c1ccc(N(C(N)=O)c2c(F)cccc2F)nc1-c1ccc(F)cc1F` [VX-702], the Kd was 0.0003 µM (active) in test [1]; > 30 µM (inactive) in test [2]; > 30 µM (inactive) in test [3]; > 30 µM (inactive) at TGF-beta receptor type-2; > 30 µM (inactive) in test [4]; > 30 µM (inactive) in test [5]. Moreover, in test [6], the Kd is > 30 µM (inactive).
Turning to `Cc1cc(-c2cc(OC(=O)c3ccccc3)ccc2Cl)cc2nnc(Nc3ccc(OCCN4CCCC4)cc3)nc12` [TG100-801], the Kd was > 30 µM (inactive) in test [1]; > 30 µM (inactive) in test [2]; > 30 µM (inactive) in test [3]; 0.703 µM (active) at TGF-beta receptor type-2; > 30 µM (inactive) in test [4]; > 30 µM (inactive) in test [5]. For the same molecule, the Kd in test [6] was > 30 µM (inactive).
As for `O=C(Nc1ccc(OC(F)(F)F)cc1)c1sccc1NCc1ccnc2ccccc12` [OSI-930], the Kd (in test [1]; in test [2]; in test [3]; on TGF-beta receptor type-2; in test [4]; in test [5]) was > 30 µM (inactive) throughout. In test [6], the Kd was > 30 µM (inactive).
For the molecule `CNC(=O)c1ccc(Nc2ncc(C(F)(F)F)c(NCc3nccnc3N(C)S(C)(=O)=O)n2)cc1` [DEFACTINIB], the Kd (in test [1]; in test [2]; in test [3]; at TGF-beta receptor type-2; in test [4]; in test [5]) was > 30 µM (inactive) in each case. The Kd in test [6] is > 30 µM (inactive).
On to `Cc1cc(C(=O)Nc2cc(Oc3ccc4nc(NC(=O)C5CC5)cn4n3)ccc2C)n(C)n1` [TAK-593], for which the Kd (in test [1]; in test [2]; in test [3]; at TGF-beta receptor type-2; in test [4]; in test [5]) was > 30 µM (inactive) in each case. In addition, the Kd in test [6] is > 30 µM (inactive).
`O=C(O)c1ccc2c(c1)nc(Nc1cccc(Cl)c1)c1ccncc12` [SILMITASERTIB]: the Kd is 5.3 µM (active) in test [1]; > 30 µM (inactive) in test [2]; > 30 µM (inactive) in test [3]; > 30 µM (inactive) on TGF-beta receptor type-2; > 30 µM (inactive) in test [4]; > 30 µM (inactive) in test [5]. Further, the Kd in test [6] is > 30 µM (inactive).
As to `N#CCNC(=O)c1ccc(-c2ccnc(Nc3ccc(N4CCOCC4)cc3)n2)cc1` [MOMELOTINIB], the Kd (in test [1]; in test [2]; in test [3]; on TGF-beta receptor type-2; in test [4]; in test [5]) was > 30 µM (inactive) each time. Besides, the Kd in test [6] was > 30 µM (inactive).
On to `c1cc(OCCN2CCCCC2)cc(-c2n[nH]c3ccc(-c4nc[nH]n4)cc23)c1` [CC-401], for which the Kd (in test [1]; in test [2]; in test [3]; on TGF-beta receptor type-2; in test [4]; in test [5]) was > 30 µM (inactive) in each case. Besides, the Kd in test [6] was > 30 µM (inactive).
